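Briefly, cells in 96-well plates were exposed to five compound concentrations for 48 h, and endpoints were estimated by linear interpolation. At the TGI there is no net growth.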
What was measured:
Experiment in all cases: NCI-60 cell line screen, 48 h
A498 renal = tested on: A498 renal
EKVX NSCLC = tested on: EKVX NSCLC
SN12C renal = tested on: SN12C renal
TK-10 renal = tested on: TK-10 renal
NCI-H460 lung = tested on: NCI-H460 lung
SNB-75 CNS = tested on: SNB-75 CNS
SK-OV-3 ovarian = tested on: SK-OV-3 ovarian
SK-MEL-28 melanoma = tested on: SK-MEL-28 melanoma
SNB-19 CNS = tested on: SNB-19 CNS
CAKI-1 renal = tested on: CAKI-1 renal
OVCAR-3 ovarian = tested on: OVCAR-3 ovarian
SR leukemia = tested on: SR leukemia
A549 NSCLC = tested on: A549 NSCLC
IGROV1 ovarian = tested on: IGROV1 ovarian
UO-31 renal = tested on: UO-31 renal
MALME-3M melanoma = tested on: MALME-3M melanoma
OVCAR-5 ovarian = tested on: OVCAR-5 ovarian
HT29 colon = tested on: HT29 colon
RXF 393 renal = tested on: RXF 393 renal
NCI-H226 lung = tested on: NCI-H226 lung
SK-MEL-2 melanoma = tested on: SK-MEL-2 melanoma
SK-MEL-5 melanoma = tested on: SK-MEL-5 melanoma
HCT-116 colon = tested on: HCT-116 colon
786-0 renal = tested on: 786-0 renal
MOLT-4 leukemia = tested on: MOLT-4 leukemia
LXFL 529 NSCLC = tested on: LXFL 529 NSCLC
NCI-H23 lung = tested on: NCI-H23 lung
HOP-92 NSCLC = tested on: HOP-92 NSCLC
SW-620 colon = tested on: SW-620 colon
SF-295 CNS = tested on: SF-295 CNS
DLD-1 colon = tested on: DLD-1 colon
U251 CNS = tested on: U251 CNS
SF-268 CNS = tested on: SF-268 CNS
HCC-2998 colon = tested on: HCC-2998 colon
KM12 colon = tested on: KM12 colon
ACHN renal = tested on: ACHN renal
CCRF-CEM leukemia = tested on: CCRF-CEM leukemia
NCI-H522 lung = tested on: NCI-H522 lung
K-562 leukemia = tested on: K-562 leukemia
M19-MEL melanoma = tested on: M19-MEL melanoma
HL-60(TB) leukemia = tested on: HL-60(TB) leukemia
UACC-257 melanoma = tested on: UACC-257 melanoma
SNB-78 CNS = tested on: SNB-78 CNS
RXF-631 renal = tested on: RXF-631 renal
COLO 205 colon = tested on: COLO 205 colon
DMS 114 small cell lung = tested on: DMS 114 small cell lung
OVCAR-8 ovarian = tested on: OVCAR-8 ovarian
UACC-62 melanoma = tested on: UACC-62 melanoma
RPMI-8226 leukemia = tested on: RPMI-8226 leukemia
DMS 273 small cell lung = tested on: DMS 273 small cell lung
SF-539 CNS = tested on: SF-539 CNS
LOX IMVI melanoma = tested on: LOX IMVI melanoma
XF 498 CNS = tested on: XF 498 CNS
HOP-18 NSCLC = tested on: HOP-18 NSCLC
KM20L2 colon = tested on: KM20L2 colon
OVCAR-4 ovarian = tested on: OVCAR-4 ovarian
HOP-62 NSCLC = tested on: HOP-62 NSCLC
HCT-15 colon = tested on: HCT-15 colon
M14 melanoma = tested on: M14 melanoma

Measured: TGI

CCN(c1ccccc1)[C@H]1C(=O)N(c2ccc([N+](=O)[O-])cc2)[C@H]1c1ccc(OC)cc1
81.8 µM: HOP-92 NSCLC
not listed: LOX IMVI melanoma | XF 498 CNS | HOP-18 NSCLC | KM20L2 colon | OVCAR-4 ovarian | HOP-62 NSCLC | HCT-15 colon | M14 melanoma
> 100 µM: all other assays above

C=C1C2=C(CCCC2)C(=O)OC12CCCCC2
77.9 µM: HOP-92 NSCLC
not listed: A498 renal | CAKI-1 renal | SNB-78 CNS
> 100 µM: all other assays above

COc1ccc2[nH]c3c(c2c1)[C@H]1CCC(C(C)(C)C)C[C@H]1[C@H]1C(=O)N(c2ccccc2)C(=O)[C@@H]31 (some centres undefined)
18.1 µM: SF-539 CNS
> 58.9 µM: OVCAR-3 ovarian
14.6 µM: SNB-75 CNS
> 53.6 µM: NCI-H460 lung
28.1 µM: OVCAR-8 ovarian
38.3 µM: HOP-62 NSCLC
44.1 µM: A498 renal
> 96.2 µM: DLD-1 colon
> 48.2 µM: SF-268 CNS
> 52.1 µM: NCI-H23 lung
58 µM: SK-MEL-2 melanoma
> 44.5 µM: SN12C renal
> 79.2 µM: COLO 205 colon
> 74.1 µM: TK-10 renal
81.9 µM: NCI-H226 lung
21 µM: HOP-92 NSCLC
> 51.7 µM: SNB-19 CNS
31 µM: XF 498 CNS
> 71.2 µM: MOLT-4 leukemia
26.5 µM: RXF 393 renal
97.5 µM: UO-31 renal
> 94.2 µM: M19-MEL melanoma
> 42.5 µM: SF-295 CNS
18.4 µM: ACHN renal
19.2 µM: U251 CNS
> 76.7 µM: DMS 114 small cell lung
> 49.5 µM: NCI-H522 lung
> 52 µM: CCRF-CEM leukemia
> 91.5 µM: K-562 leukemia
> 75.8 µM: A549 NSCLC
> 36.6 µM: CAKI-1 renal
14.4 µM: OVCAR-4 ovarian
99.6 µM: HOP-18 NSCLC
> 80.6 µM: UACC-257 melanoma
30.6 µM: M14 melanoma
40.4 µM: MALME-3M melanoma
57.5 µM: RXF-631 renal
15.6 µM: 786-0 renal
44.9 µM: SK-OV-3 ovarian
not listed: SR leukemia | SNB-78 CNS
> 100 µM: all other assays above

From PubChem BioAssay (NCI)
